Measured values as given in US5300279A, “Organic amine phosphonic acid complexes for the treatment of calcific tumors” (The Dow Chemical Company, priority 1990, dated 1994).
Read-outs that look alike come from different tables or passages of the source.

How the values were obtained:
[1] = Description: Quantitative biodistributions were obtained by injecting 50-100 microliters of the composition into the tail vein of unanesthetized male Sprague Dawley rats. The rats were then placed in cages lined with absorbent paper in order to collect all urine excreted prior to sacrifice. After a given period of time, the rats were sacrificed by cervical dislocation and the various tissues dissected. The samples were then rinsed with saline, blotted dry on absorbent paper and weighed. The radioactivity in the samples was measured with a NaI scintillation counter.
Whenever in the following examples and tables data is presented on the administered dose of radioactivity, the numbers given represent the percentage of the administered dose which localized in the indicated tissue. The ratios of radioactivity observed in bone relative to blood and muscle were calculated based on the percent dose per gram in the bone and in the blood and muscle. Whenever the ratios of radioactivity found in bone to that found in nonosseous tissue is given, the calculation was made as indicated above on a percent dose per gram basis.
A series of rats was injected with compositions containing Sm-153 EDTMP (compositions prepared as in Example 2) and sacrified in groups of five at various intervals.

tumor = tested on: tumor
Method: An English Setter with a tumor in his pelvis was injected with approximately 19 mCi of a composition containing Sm-153-EDTMP. After 2 hours, the dog was imaged using a scintillation camera.
An Irish setter with undifferentiated sarcoma metastatic to bone was treated with 16 mCi (0.57 mCi/kg) of a composition containing Sm-153-EDTMP. […] After approximately 3 months, when signs of lameness began to reappear, the dog was given a second treatment of 15 mCi (0.49 mCi/kg), of a composition containing Sm-153-EDTMP.
A female Irish Wolfhound with a possible osteosarcoma on the left distal radius was injected with a composition containing ^166 Ho-EDTMP (0.97 mCi/kg).

[2] = tested on: white blood cells and platelets; settings: for platelet and white blood cell levels: 2-3 weeks after administration
Method: A series of normal beagles was treated with various dose levels of a composition containing Sm-153-EDTMP. White blood cell and platelet counts were measured weekly to check for signs of bone marrow supression.

[3] = for Percent Injected Dose Remaining in Whole Blood, Average: average of 5 patients
Method: (§1) Sterile pyrogen-free vials were prepared to contain 210 mg of EDTMP and 140 mg NAOH by freeze-drying a solution containing appropriate amounts of EDTMP and NAOH. The vials were sealed under vacuum. To prepare one of the compositons of the invention, 6 ml of a solution containing Sm-153 (approximately 3×10^-4 M in Sm) in 0.1M HCl was injected into the sealed vial through a septum.
Five humans with metastatic bone cancer (three with lung cancer and two with prostate cancer as the primary site) were injected with a composition containing 2 mCi of Sm-153-EDTMP. Blood samples were taken intermittently to determine the fraction of the Sm-153 remaining in the blood.

[4] = remark: listed apart in the source
Method: as §1
Urine was collected and counted to determine the percentage of the radioactivity excreted as a function of time after injection.

cancerous lesions = assay: scintigraphic imaging in humans with metastatic bone cancer; format: in vivo
Method: Scintigraphic images were obtained two hours post injection and were used for comparison with images previously obtained using Tc-99m-HDP (hydroxymethylenediphosphonate), a commercially available diagnostic bone imaging agent.
The uptake observed for each radionuclide in selected lesions compared to its uptake in normal bone was determined using digitized images.

lesion / normal bone = settings: compared with Tc-99m-MDP
Method: Thus, two holes were drilled into the surface of the tibia of a rabbit in order to damage the bone. Seven to ten days later, the animal was injected with the radionuclide composition. After three hours, the rabbit was anesthetized and imaged using an Anger camera and pinhole collimator.

[5] = humans
[6] = Irish setter, nine months after second treatment

O=P([O-])(O)CN(CCN(CP(=O)([O-])O)CP(=O)(O)O)CP(=O)([O-])O.[153Sm+3] [Example 2]
Average Percent of Injected Dose, Blood ([1]; 1 Hour): .532% of Injected Dose | Average Percent of Injected Dose, Kidneys ([1]; 1 Hour): .466% of Injected Dose | Average Percent of Injected Dose, Liver ([1]; 1 Hour): .322% of Injected Dose | Average Percent of Injected Dose, Skeleton ([1]; 1 Hour): 58% of Injected Dose | Average Percent of Injected Dose, Urine ([1]; 1 Hour): 47% of Injected Dose | Bone/Blood ([1]; 1 Hour): 120 | Bone/Muscle ([1]; 1 Hour): 300 | Average Percent of Injected Dose, Blood ([1]; 2 Hours): .032% of Injected Dose | Average Percent of Injected Dose, Kidneys ([1]; 2 Hours): .254% of Injected Dose | Average Percent of Injected Dose, Liver ([1]; 2 Hours): .252% of Injected Dose | Average Percent of Injected Dose, Skeleton ([1]; 2 Hours): 58% of Injected Dose | Average Percent of Injected Dose, Urine ([1]; 2 Hours): 49% of Injected Dose | Bone/Blood ([1]; 2 Hours): 1800 | Bone/Muscle ([1]; 2 Hours): 1500 | Average Percent of Injected Dose, Blood ([1]; 5 Hours): .008% of Injected Dose | Average Percent of Injected Dose, Kidneys ([1]; 5 Hours): .364% of Injected Dose | Average Percent of Injected Dose, Liver ([1]; 5 Hours): .370% of Injected Dose | Average Percent of Injected Dose, Skeleton ([1]; 5 Hours): 59% of Injected Dose | Average Percent of Injected Dose, Urine ([1]; 5 Hours): 46% of Injected Dose | Bone/Blood ([1]; 5 Hours): 4200 | Bone/Muscle ([1]; 5 Hours): 3600 | Average Percent of Injected Dose, Blood ([1]; 15 Min.): 5.852% of Injected Dose | Average Percent of Injected Dose, Kidneys ([1]; 15 Min.): 1.745% of Injected Dose | Average Percent of Injected Dose, Liver ([1]; 15 Min.): .959% of Injected Dose | Average Percent of Injected Dose, Skeleton ([1]; 15 Min.): 48% of Injected Dose | Average Percent of Injected Dose, Urine ([1]; 15 Min.): 28% of Injected Dose | Bone/Blood ([1]; 15 Min.): 7 | Bone/Muscle ([1]; 15 Min.): 30 | Average Percent of Injected Dose, Blood ([1]; 24 Hours): .007% of Injected Dose | Average Percent of Injected Dose, Kidneys ([1]; 24 Hours): .250% of Injected Dose | Average Percent of Injected Dose, Liver ([1]; 24 Hours): .349% of Injected Dose | Average Percent of Injected Dose, Skeleton ([1]; 24 Hours): 52% of Injected Dose | Average Percent of Injected Dose, Urine ([1]; 24 Hours): 55% of Injected Dose | Bone/Blood ([1]; 24 Hours): 6700 | Bone/Muscle ([1]; 24 Hours): 2400 | Average Percent of Injected Dose, Blood ([1]; 30 Min.): 2.304% of Injected Dose | Average Percent of Injected Dose, Kidneys ([1]; 30 Min.): .805% of Injected Dose | Average Percent of Injected Dose, Liver ([1]; 30 Min.): .526% of Injected Dose | Average Percent of Injected Dose, Skeleton ([1]; 30 Min.): 53% of Injected Dose | Average Percent of Injected Dose, Urine ([1]; 30 Min.): 42% of Injected Dose | Bone/Blood ([1]; 30 Min.): 20 | Bone/Muscle ([1]; 30 Min.): 70 | Average Percent of Injected Dose, Blood ([1]; 48 Hours): .006% of Injected Dose | Average Percent of Injected Dose, Kidneys ([1]; 48 Hours): .286% of Injected Dose | Average Percent of Injected Dose, Liver ([1]; 48 Hours): .458% of Injected Dose | Average Percent of Injected Dose, Skeleton ([1]; 48 Hours): 60% of Injected Dose | Average Percent of Injected Dose, Urine ([1]; 48 Hours): 50% of Injected Dose | Bone/Blood ([1]; 48 Hours): 8200 | Bone/Muscle ([1]; 48 Hours): 2800 | Average Percent of Injected Dose, Blood ([1]; 72 Hours): .006% of Injected Dose | Average Percent of Injected Dose, Kidneys ([1]; 72 Hours): .216% of Injected Dose | Average Percent of Injected Dose, Liver ([1]; 72 Hours): .492% of Injected Dose | Average Percent of Injected Dose, Skeleton ([1]; 72 Hours): 57% of Injected Dose | Average Percent of Injected Dose, Urine ([1]; 72 Hours): 53% of Injected Dose | Bone/Blood ([1]; 72 Hours): 7800 | Bone/Muscle ([1]; 72 Hours): 3400 | clearance of the radioactivity from the skeletal system ([1]; rats, up to 72 hours, words): no significant clearance of the radioactivity from the skeletal system | blood clearance ([1]; rats, words): rapid blood clearance | uptake of the radioactivity in bone ([1]; rats, words): rapid uptake of the radioactivity in bone | pain / mobility (tumor; English Setter, approximately 19 mCi, seven days after treatment): appeared to be in less pain as evidenced by an increase in its mobility | pain / mobility / lameness (tumor; Irish setter, 16 mCi (0.57 mCi/kg), seven days after treatment): appeared to be in less pain as evidenced by an increase in mobility and a decrease in lameness | time until signs of lameness began to reappear (tumor; Irish setter, after first treatment 16 mCi (0.57 mCi/kg)): approximately 3 months | lameness and general health (tumor; Irish setter, eight months after second treatment): no recurrence of lameness, had gained weight and appeared healthy | regression of bone lesions (X-rays) (tumor; Irish setter, five months after second treatment): significant regression of bone lesions | death (tumor; [6]): died of kidney failure | total necropsy (tumor; [6]): no evidence of cancer | mobility / lameness after second treatment (tumor; Irish setter, second treatment 15 mCi (0.49 mCi/kg), seven days): general increase in mobility and decrease in lameness | platelet and white blood cell levels ([2]; 0.5 mCi Sm-153/kg): smaller decrease in the levels of platelets and white blood cells | time to return of white cells and platelets to normal levels ([2]; 0.5 mCi Sm-153/kg, few animals that fell below normal): 4-5 weeks | time to return of white cells and platelets to normal levels ([2]; 1.0 mCi Sm-153/kg): 4-5 weeks | platelet and white blood cell levels ([2]; 1.0 mCi Sm-153/kg): slight decrease in both platelets and white blood cells | Percent Injected Dose Remaining in Whole Blood, Average ([3]; 5 min.): 31.63 Percent Injected Dose | Percent Injected Dose Remaining in Whole Blood, Average ([3]; 15 min.): 20.90 Percent Injected Dose | Percent Injected Dose Remaining in Whole Blood, Average ([3]; 30 min.): 15.77 Percent Injected Dose | Percent Injected Dose Remaining in Whole Blood, Average ([3]; 60 min.): 9.53 Percent Injected Dose | Percent Injected Dose Remaining in Whole Blood, Average ([3]; 120 min.): 5.17 Percent Injected Dose | Percent Injected Dose Remaining in Whole Blood, Average ([3]; 180 min.): 3.28 Percent Injected Dose | Percent Injected Dose Remaining in Whole Blood, Average ([3]; 240 min.): 2.08 Percent Injected Dose | concentration of radioactivity in red cells ([3]; humans): no significant concentration of radioactivity in red cells | radioactivity in the plasma fraction ([3]; humans): all of the measured activity was in the plasma fraction | clearance of radioactivity from the blood ([3]; humans, words): the radioactivity cleared very rapidly from the blood | Percent Excretion in Urine, Average ([4]; 1 Hr., average of 5 patients): 26.13% | Percent Excretion in Urine, Average ([4]; 2 Hr., average of 5 patients): 7.15% | Percent Excretion in Urine, Average ([4]; 4-8 Hr., average of 5 patients): 9.02% | Percent Excretion in Urine, Average ([4]; 4 Hr., average of 5 patients): 10.95% | Percent Excretion in Urine, Average ([4]; 8-12 Hr., average of 5 patients): 1.76% | Percent Excretion in Urine, Average ([4]; 12-24 Hr., average of 5 patients): 1.07% | Percent Excretion in Urine, 24 Hr Total, Average ([4]; 24 Hr Total, average of 5 patients): 56.09% | clearance of radioactivity into the urine ([4]; humans, words): cleared rapidly | Sm-153 concentration in cancerous lesions (cancerous lesions; compared with dogs): high, selective and similar to that observed in dogs | localization of radioactivity in lesions vs normal bone compared with Tc-99m-HDP (cancerous lesions; digitized images): localization of radioactivity in the lesions to a similar extent | visibility of cancerous lesions compared with Tc-99m-HDP (cancerous lesions; qualitative comparison of images): all cancerous lesions observable with Tc-99m-HDP are seen equally well with Sm-153-EDTMP | retention of radioactivity in the kidneys (cancerous lesions; two hour post injection images): no observable retention of radioactivity in the kidneys | localization of Sm-153 in scintigraphic images (cancerous lesions; two hours post injection): localized in skeletal tissue with no significant uptake and retention in non-osseous tissues | lesion to normal bone ratio (lesion / normal bone): approximately equal to that of Tc-99m-MDP | blood profiles (white blood cell, red blood cell, platelet count) and serum chemistry profiles ([5]; post-injection vs preinjection): No significant changes | vital signs ([5]; several post injection times vs preinjection): not significantly different than preinjection values
